Experimental data reported in patent US10624948B2, “Use of cell-permeable peptide inhibitors of the JNK signal transduction pathway for the treatment of various diseases” (Xigen Inflammation Ltd., priority 2013, dated 2020).

What was measured:
[1] = test system: post-operative intraocular inflammation; conditions: Dexamethasone (N = 50)
Description: The objectives of the SDD-1002-035 study were to evaluate the efficacy and safety of a single sub-conjunctival injection of XG-102 90 or 900 μg administered within maximally 3 hours after the end of the surgical procedure compared to dexamethasone eye drops administered 4 times/day for 21 days in post-operative intraocular inflammation.
In accordance with this trial's primary objective, the primary outcome was evaluated by the mean anterior chamber cells grade at day 28 post-administration of the sub-conjunctival injection of study treatment comparing XG-102 900 μg with dexamethasone eye drops.
The present trial was a randomized (1:1:1), controlled, double-blind, multicenter non-inferiority clinical trial with three parallel groups of equal size. Randomization, which was blocked by center, was performed using a web-based, secure, randomization system. […]
The primary objective was evaluated by the mean anterior chamber cells grade at day 28 post-administration of the sub-conjunctival administration of study treatment. […]

[2] = Phase II trial, safety and tolerability (adverse events)
Description: The criteria for evaluation of safety were:
An AE is therefore any unfavorable and unintended sign, symptom or disease temporally associated with the use of a medicinal product, whether or not considered related to the medicinal product.
Patients were analyzed as treated, i.e. according to the treatment which they received. The safety set was the primary analysis set for the safety analysis.
The present study was a double-blind study. All patients who were randomized and for whom the sub-conjunctival injection was started are included in the safety analysis by dose group. […] If the study treatment eye drops were stopped prematurely (i.e. before day 21), the patients concerned continued follow-up until day 28, in accordance with the study protocol.
Investigators assessed (in a blinded manner) the relationship of each reported AE to any of the study treatments. An event was considered to be related to study treatment if the Investigator ticked either ‘possible’ or ‘probable’ as the reply to this question.

[3] = test system: Sprague-Dawley rats, STZ diabetic nephropathy; assay: Rat model of diabetic nephropathy (STZ, high fat diet); format: in vivo; conditions: Losartan 25 mg/kg po daily
Description: Losartan has been used as a positive control. Seventy-four male Sprague-Dawley rats (200-250 g; including 4 spare animals) from Charles River (Margate, Kent) were used. Rats were housed in pairs in polypropylene cages with free access to a high fat diet (D12492 60% of kcal derived from fat) and tap water at all times. The diet has been purchased from Research Diets, New Jersey, USA. All animals have been maintained at 21±4° C. and 55±20% humidity on a normal light (lights on: 07:00-19:00). […] About 40 animals have been assigned to Cohort A and the remaining 30 to Cohort B, balanced as far as possible for body weight, plasma glucose and food and water intake. […] In all groups, food and water intake have been determined twice weekly (on the day of iv dosing and on water refill days. Blood glucose has been determined monthly. Samples were collected as detailed previously by glucometer (One Touch Ultra2). Blood samples have been taken in the freely fed state (beginning at approx. 09:00). Animals have been dosed immediately afterwards by the respective route to a timed schedule. Subsequent to dosing, each animal has been placed in a metabolism cage with free access to food and water for a 24 h period. To reduce evaporation, the glass urine collectors have been placed in a polystyrene container (Sca-online, UK) which was filled with ice. […] Food consumed and water drunk has also been calculated. […]

Row | Structure (SMILES) | Premature withdrawal of study tx eye drops, # patients (%) [1] | Adverse events which led to an interruption of study treatment ([2]; Dexamethasone dose group) | patients with Intraocular pressure increased ([2]; dexamethasone) | percentage of patients who experienced an AE within 24 hours ([2]; dexamethasone group) | body weight [3]
1 | C[C@@H]1C[C@H]2[C@@H]3CCC4=CC(=O)C=C[C@]4(C)[C@@]3(F)[C@@H](O)C[C@]2(C)[C@@]1(O)C(=O)CO [dexamethasone, reference compound] | 3 (6.0%) | 3 (5.5%) number of events (%) | 14% | 30% | –
2 | CCCCc1nc(Cl)c(CO)n1Cc1ccc(-c2ccccc2-c2nn[nH]n2)cc1 [Losartan] | – | – | – | – | significantly lower
